In patent US10111854B2, “Synthesis and use of amine-containing flavonoids as potent anti-leishmanial agents” (The Hong Kong Polytechnic University, priority 2014, dated 2018):

Legend:
[1] = system: L. amazonensis LV78 promastigotes; assay: Anti-promastigote activity (MTS assay), L. amazonensis LV78; assay type: cell-based; conditions: Leishmania amazonensis, 72 hours
Description: (§1) Promastigotes of visceral L. donovani Ld39 and LdHU3, and cutaneous L. amazonensis LV78, L. braziliensis UA847 and L. major FV1 were employed in the study. All strains were cultured in Schneider's Drosophila Medium (Invitrogen), pH 6.9 supplemented with 10% (v/v) heat inactivated fetal bovine serum (Hyclone) with 4 mM glutamine (Sigma) and 25 μg/mL gentamicin solution (Invitrogen) at 27° C. for 4 days. RAW264.7 cells were cultured in supplemented DMEM media with 10% heat inactivated FBS and 100 U/mL penicillin and 100 μg/mL of streptomycin. They were maintained at 37° C. in a humidified atmosphere with 5% CO2. The cells were split constantly after a confluent monolayer has been formed. The cells were harvested by a cell scraper.
(§2) Anti-promastigote activity was determined according to previous procedures (1) by Cell Titer 96® Aqueous Assay (Promega) that employed a tetrazolium compound. Promastigotes were seeded into 96-well flat bottom microtiter plate at 1×10^5 cells per well in a final volume of 100 μL medium and incubated with a series of concentrations of synthetic FM. Parasites were incubated at 27° C. for 72 hours. After 72 hours of incubation, 10 μL of MTS:PMS mixture [MTS:2-(4,5-Dimethylthiazol-2-yl-)-5-[3-(carboxymethoxy)phenyl]-2-(4-sulfophenyl)-2H-tetrazolium); PMS: phenazine methosulfate both purchased from Sigma] was added into each well of microtiter plate. The plate was then incubated at 27° C. for 4 hours for color development. After 4 hours of incubation, the OD values were determined at 490 nm using automatic microtiter plate reader (Bio-Rad).
(§3) IC50 values of known antileishmanials and the amine-containing flavonoid monomers of the present invention to promastigotes (L. amazonensis LV78, L major FV1, L. donovani HU3, L. donovani 39), macrophages (Raw 264.7 and PEM) and mouse fibroblast (L929) were determined. The anti-promastigotes activities and cytotoxicity of the amine-containing flavonoid monomers of the invention are shown in Table 1.

[2] = system: L. donovani HU3 promastigotes; assay: Anti-promastigote activity (MTS assay), L. donovani HU3; assay type: cell-based; conditions: Leishmania donovani, 72 hours
Description: as §1, §2, §3

[3] = Cytotoxicity, L929 fibroblasts; assay type: cell-based, mouse; conditions: mouse
Description: as §3

[4] = system: L. amazonensis LV78 amastigotes; assay: Anti-amastigote activity in infected PEM, L. amazonensis LV78; assay type: cell-based; conditions: for IC50: Leishmania amazonensis, 72 h, infected PEM, 3 days, Giemsa
Description: (§4) Mouse peritoneal elicited macrophages (PEM) were obtained as previously described (2). A round cover slip (12 mm in diameter) was placed into each well of 24-well culture plate. Mouse PEM were resuspended in supplemented DMEM media containing 10% heat inactivated FBS (v/v), 100 U/mL penicillin and 100 μg/mL streptomycin and seeded into each well at a cell density of 1×10^5 cells per 500 μL. Macrophages were allowed to attach overnight. Non-adherent cells were removed by gentle washing with un-supplemented DMEM media twice. Adherent macrophages were infected with late-log promastigotes at a parasite-to-macrophage ratio of 20:1 overnight at 37° C. with 5% CO2. Non-internalized promastigotes were removed by washing twice with un-supplemented DMEM media. Infected macrophages were further incubated in 500 μL of supplemented DMEM media in the presence or absence of FM for 72 hours at 37° C. After incubation, cover slips were stained with Giemsa and the percentage of macrophages infected and number of amastigotes per 100 macrophages was enumerated.
(§5) PEM cells were infected with late-log promastigotes (L. amazonensis LV78, L. braziliensis UA847, L. donovani HU3, L. donovani 39) for 24 hr at 37° C. Infected macrophages were then treated with various antileishmanials and incubated for 3 days at 37° C. After 3 days, the cover slips were stained with Giemsa. The number of amastigotes per 100 macrophages were determined and used to calculate IC50 values.

[5] = system: L. donovani HU3 amastigotes; assay: Anti-amastigote activity in infected PEM, L. donovani HU3; assay type: cell-based; conditions: Leishmania donovani, 72 h; infected PEM, 3 days, Giemsa; SSG-sensitive
Description: as §4, §5

[6] = system: L. amazonensis and L. donovani HU3 promastigotes and amastigotes; assay: Anti-promastigote and anti-amastigote activity of FM09, FM01 and FM05 derivatives; assay type: cell-based, Leishmania; conditions: stage and strain not specified; read-out: IC50, anti-promastigote and anti-amastigote activity (Table 3C)
Description: Derivatives of FM09, FM01 and FM05 were synthesized and their anti-promastigote and anti-amastigote activity were determined (Table 3C). Many amine-containing flavonoid monomers have IC50 less than 5 μM, including FM09a, FM09b, FM09c, FM09e, FM09h, FM09i, FM09k, FM09l, FM01b and FM05b.

[7] = Cytotoxicity, peritoneal elicited macrophages (PEM); assay type: cell-based, mouse; conditions: mouse, Cytotoxicity IC50, PEM
Description: as §4, §3

[8] = system: L. major FV1 promastigotes; assay: Anti-promastigote activity (MTS assay), L. major FV1; assay type: cell-based; conditions: Leishmania major, 72 hours
Description: as §1, §2, §3

[9] = system: L. donovani Ld39 promastigotes; assay: Anti-promastigote activity (MTS assay), L. donovani Ld39; assay type: cell-based; conditions: Leishmania donovani, 72 hours
Description: as §1, §2, §3

[10] = system: L. donovani Ld39 amastigotes (SSG-resistant); assay: Anti-amastigote activity in infected PEM, L. donovani Ld39; assay type: cell-based; conditions: Leishmania donovani, 72 h; infected PEM, 3 days, Giemsa; SSG-resistant
Description: as §4, §5

[11] = system: promastigotes (L. amazonensis LV78, L major FV1, L. donovani HU3, L. donovani 39); assay: Anti-promastigote activity, strain not given; assay type: cell-based; conditions: Leishmania amazonensis; strain not specified; read-out: IC50 against promastigotes
Description: as §2, §3

[12] = system: amastigotes (L. amazonensis LV78, L. braziliensis UA847, L. donovani HU3, L. donovani 39); assay: Anti-amastigote activity, strain not given; assay type: cell-based; conditions: strain not specified; visceral and cutaneous Leishmania; read-out: IC50 against amastigotes
Description: as §4, §5

SMILES	IC50 [1] [µM]	IC50 [2] [µM]	IC50 [4] [µM]	IC50 [5] [µM]	IC50 [6] [µM]	IC50 [8] [µM]	IC50 [11] [µM]	IC50 [12] [µM]	IC50 [3] [µM]	IC50 [7] [µM]	IC50 [9] [µM]	IC50 [10] [µM]	Selective index (a)/(b) ([4]; IC50 RAW264.7 over IC50 L. amazonensis LV78 amastigotes)
O=c1cc(-c2ccc(OCCOCCN(Cc3ncccc3F)Cc3ncccc3F)cc2)oc2ccccc12 [FM09c, 2-(4-(2-(2-(bis((3-fluoropyridin-2-yl)methyl)amino)ethoxy)ethoxy)phenyl)-4H-chromen-4-one]	3.19 ± 0.66	5.09 ± 1.13	1.95 ± 0.78	3.1	< 5	–	–	–	–	35.4 ± 1.05	–	–	–
O=c1cc(-c2ccc(OCCOCCN(Cc3ccc4ccccc4n3)Cc3ccc4ccccc4n3)cc2)oc2ccccc12 [FM09l, 2-(4-(2-(2-(bis(quinolin-2-ylmethyl)amino)ethoxy)ethoxy)phenyl)-4H-chromen-4-one]	4.44 ± 1.24	4.74 ± 0.56	3.03 ± 0.41	4.5 ± 2.38	< 5	–	–	–	> 100	67.1	–	–	–
O=c1cc(-c2ccc(OCCOCCN(Cc3cccnc3)Cc3cccnc3)cc2)oc2ccccc12 [FM09b, 2-(4-(2-(2-(bis(pyridin-3-ylmethyl)amino)ethoxy)ethoxy)phenyl)-4H-chromen-4-one]	–	–	–	–	< 5	–	–	–	–	–	–	–	–
COc1ccnc(CN(CCOCCOc2ccc(-c3cc(=O)c4ccccc4o3)cc2)Cc2nccc(OC)c2OC)c1OC [FM09a, 2-(4-(2-(2-(bis((3,4-dimethoxypyridin-2-yl)methyl)amino)ethoxy)ethoxy)phenyl)-4H-chromen-4-one]	0.32 ± 0.05	0.47 ± 0.07	0.56 ± 0.21	–	< 5	–	–	–	–	10.4 ± 0.64	–	–	–
O=C(COc1ccc(-c2cc(=O)c3ccccc3o2)cc1)N1CCCN(Cc2ccncc2)CC1 [FM15, 2-(4-(2-oxo-2-(4-(pyridin-4-ylmethyl)-1,4-diazepan-1-yl)ethoxy)phenyl)-4H-chromen-4-one]	4.8 ± 1.3	1.5 ± 0.3	> 9	> 10	–	6.4 ± 1.7	< 5	< 5	14.9 ± 2.6	–	1.8 ± 0.7	3.3	–
CN(CCOc1ccc(-c2cc(=O)c3ccccc3o2)cc1)CCN(C)Cc1ccncc1 [FM02, 2-(4-(2-(methyl(2-(methyl(pyridin-4-ylmethyl)amino)ethyl)amino)ethoxy)phenyl)-4H-chromen-4-one]	4.6 ± 0.6	1.8 ± 0.3	4.7 ± 1	> 10	–	5.4 ± 1	< 5	< 5	22.1 ± 4	22	2.1 ± 0.6	9.6	–

Continued, in another order:

IC50 [1] [µM]	IC50 [2] [µM]	IC50 [4] [µM]	IC50 [5] [µM]	IC50 [6] [µM]	IC50 [8] [µM]	IC50 [11] [µM]	IC50 [12] [µM]	SMILES	IC50 [3] [µM]	IC50 [7] [µM]	IC50 [9] [µM]	IC50 [10] [µM]	Selective index (a)/(b) ([4]; IC50 RAW264.7 over IC50 L. amazonensis LV78 amastigotes)
3.99 ± 0.99	6.15 ± 1.47	2.42 ± 0.69	3.5 ± 1.01	< 5	–	–	–	COc1ccnc(CN2CCN(CCOc3ccc(-c4cc(=O)c5ccccc5o4)cc3)CC2)c1OC [FM01b, 2-(4-(2-(4-((3,4-dimethoxypyridin-2-yl)methyl)piperazin-1-yl)ethoxy)phenyl)-4H-chromen-4-one]	95.8 ± 4.25	–	–	–	–
7.41 ± 1.76	4.9 ± 0.78	2.4 ± 0.37	3.5 ± 0.48	< 5	–	–	–	Cc1cccc(CN(CCOCCOc2ccc(-c3cc(=O)c4ccccc4o3)cc2)Cc2cccc(C)n2)n1 [FM09e, 2-(4-(2-(2-(bis((6-methylpyridin-2-yl)methyl)amino)ethoxy)ethoxy)phenyl)-4H-chromen-4-one]	18.8 ± 0.95	–	–	–	–
2.8 ± 0.8	2.4 ± 0.5	3.7 ± 1.7	> 5	–	3.8 ± 0.7	< 5	< 5	O=c1cc(-c2ccc(OCCOCCNCc3ccccc3)cc2)oc2ccccc12 [FM04, 2-(4-(2-(2-(benzylamino)ethoxy)ethoxy)phenyl)-4H-chromen-4-one]	> 33	20.3	2.6 ± 0.5	6.8	–
1.4 ± 0.3	0.3 ± 0.1	1.9 ± 0.5	> 7	–	1.6 ± 0.6	< 5	< 5	O=c1cc(-c2ccc(OCCN3CCCN(Cc4ccncc4)CC3)cc2)oc2ccccc12 [FM14, 2-(4-(2-(4-(pyridin-4-ylmethyl)-1,4-diazepan-1-yl)ethoxy)phenyl)-4H-chromen-4-one]	10.6	–	1.4 ± 0.9	8.4	11.4
